ChEMBL document CHEMBL1201862, “PubChem BioAssay data set” (2004)
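Method: 48-hour compound exposure of cells in 96-well plates, five concentrations, linear interpolation of endpoints. GI50 marks 50% less growth.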 Active and inactive are the calls of the source. No stated cut-off is given here; in the data, active = GI50 up to about 1.1 µM and inactive = higher.

How the values were obtained:
Test in all cases: DTP human tumour cell line panel, 48 h
DMS-273 = system: DMS-273
RXF 631 = system: RXF 631
DMS-114 = system: DMS-114
XF498 = system: XF498
M19-MEL = system: M19-MEL
HOP-18 = system: HOP-18
DLD-1 = system: DLD-1
KM-20L2 = system: KM-20L2
MDA-N = system: MDA-N

Measured: GI50

O=C(CO)C1CC2C=CC1C2 (configuration not stated)
inactive: DMS-273 > 100 µM | RXF 631 > 100 µM | DMS-114 > 100 µM | XF498 > 100 µM | M19-MEL > 100 µM

O=[N+]([O-])[C@@H]1C2C=CC(C2)[C@H]1Cl (some centres not stated)
inactive: HOP-18 > 100 µM | DMS-273 > 100 µM | RXF 631 > 100 µM | DMS-114 > 100 µM | DLD-1 > 100 µM | XF498 > 100 µM | M19-MEL > 100 µM

CCN(CC)/C(=C\Cl)Nc1ccccn1.[O-][Cl+3]([O-])([O-])O
inactive: HOP-18 > 100 µM | DMS-273 > 100 µM | RXF 631 > 100 µM | DMS-114 > 100 µM | KM-20L2 > 100 µM | DLD-1 > 100 µM | XF498 > 100 µM | M19-MEL > 100 µM

O=C1C2CCN(CC2)C1CN1CCOCC1 (configuration not stated)
inactive: HOP-18 7.59 µM | DMS-273 11.8 µM | RXF 631 16.9 µM | KM-20L2 18.2 µM | MDA-N 5.75 µM | DLD-1 1.65 µM | XF498 5.05 µM | M19-MEL 13.4 µM

S=C(Nc1ccccc1)Nc1ccccc1SC(/C=C/NNC1=NN=C(c2ccccc2)C(c2ccccc2)N1)c1ccccc1 (configuration not stated)
inactive: DMS-273 > 100 µM | RXF 631 > 100 µM | DMS-114 12.2 µM | KM-20L2 > 100 µM | DLD-1 79.8 µM | XF498 > 100 µM | M19-MEL > 100 µM

CCc1cc(CCC(=O)Nc2c(C)cccc2C)n[nH]1
inactive: HOP-18 > 100 µM | DMS-273 > 100 µM | RXF 631 > 100 µM | KM-20L2 > 100 µM | DLD-1 > 100 µM | XF498 > 100 µM | M19-MEL > 100 µM
